From US20260130966A1, “NOVEL THERAPEUTICS FOR PARASITIC INFECTION” (UNIVERSITY OF SOUTH FLORIDA, priority 2022, published 2026)
In brackets after ≈: the same amount, converted by molar mass. Several values for one entry are separate records, joined by “and”; a condition that tells them apart may be missing. Identical values can stand only once. Entries after “also recorded” stand apart in the source; their conditions may differ. Like-named read-outs stand apart in the source and are kept apart here. Where a SMILES comes first, the peptide text is derived from it. [ ]: non-standard residue; d: D form. The star is where a group is joined. ξ: configuration not given here. Phe(Nα-CONH2) = NC(=O)N[C@@H](Cc1ccccc1)C(=O)*; NMeI = CC[C@H](C)[C@H](NC)C(=O)O; NMeξIle = CC[C@H](C)C(NC)C(=O)O; X1 = CN(/C=C\c1c[nH]c2ccccc12)*; NMeL = CN[C@@H](CC(C)C)C(=O)O; NMeV = CN[C@H](C(=O)O)C(C)C; NMeA = CN[C@@H](C)C(=O)O; For = O=C*

How the values were obtained:
Leishmania donovani = Leishmania donovani infected macrophage assay; assay type: cell-based
Protocol: (§1) The Leishmania donovani infected macrophage assay and cytotoxicity screen were conducted as previously described.

P. falciparum 3D7 = experiment: microbe, parasite or virus in culture; assay type: cell-based, Plasmodium falciparum
Protocol: (§2) For parasite suspension, P. falciparum malaria strains were grown under normal conditions as previously described by Trager and Jensen with some modifications.” Briefly, parasites were suspended in RPMI 1640 supplemented with 0.23% sodium bicarbonate, […] hypoxanthine and 0.5% albumax (CM), 4% packed washed red blood cells by volume and incubated in a continuous gas incubator set to normal conditions (5% O2, 5% CO2, […]). Parasites were prepared for drug susceptibility assay by highly synchronizing schizonts 16 h before experiment start by using a 70% percoll method. Ring stage parasites were then resuspended in culture with fresh CM containing 2% hematocrit and 0.5% parasitemia.
(§3) Antimalaria activity was assessed against reference strains of NF54, 3D7 and Dd2 using an adaptation of the sensitivity assay of Desjardins et al. using SybrGreen fluorescence as an assessment of parasite growth.^32 NF54 original isolate was obtained from a patient living near Schiphol Airport, Amsterdam and its clonal isolate 3D7 are generally considered to be drug sensitive, though 3D7 does convey resistance to sulfadoxine. Dd2 derived from the parent W2, is multi-drug-resistant line originating from the Indochina III/CDC isolate, which contain point mutations in pfcrt as well as amplifications in pfmdr1 and GTP cyclohydrolase. Briefly, compounds were diluted to 10 μg/mL and serially diluted along a microtiter plate before adding in 100 μL/well of the parasite suspension. Parasite growth was compared to controls incubated at 37° C. and normal culture conditions (5% O2, 5% CO2, 90% N2) for 72 h. Plates were frozen and thawed before adding a final 1× concentration of SybrGreen in lysis buffer and read on the CLARIOstar fluorescence plate reader (Ex/Em 484-15/528-15) following a 45 min incubation at room temperature. Drug EC50 values were calculated by interpolation of the probit transformation of the log(dose)-response curve using the MARS software provided by BMG.

P. falciparum Dd2 = experiment: microbe, parasite or virus in culture; assay type: cell-based, Plasmodium falciparum
Protocol: as §2, §3

P. falciparum NF54 = experiment: microbe, parasite or virus in culture; assay type: cell-based, Plasmodium falciparum
Protocol: as §2, §3

[1] = tested on: murine J774 macrophage cells; experiment: Cytotoxicity testing against murine J774 macrophage cells (CellTiter 96); assay type: cell-based
Protocol: The isolated compounds were each tested for cytotoxicity using mammalian J774A.1 cell lines (ATCC TIB-67™) in complete media; RPMI 1640 medium with phenol red containing L-glutamine and then supplemented with 10% fetal bovine serum (CM). Cells were seeded at 5×10^5 cell/mL and plated in a 96-well format with 100 μL/well fresh media on day 0 and were incubated overnight at 37° C., 5% CO2 for adherence. Following 24 h incubation, spent media was removed and 100 μL of fresh media with test compounds were serially diluted 1:2 with a starting concentration of 10 μg/mL was added to the cells and incubated for an additional 68 h before adding in 20 μL CellTiter 96® AQueous One Solution Cell Proliferation Assay reagent (Promega). Cells were incubated for an additional 4 h before reading absorbance (490) nm on the CLARIOstar plate reader.

C. difficile UK6 = experiment: C. difficile MIC screening; assay type: cell-based, Clostridium difficile
HEK293T = experiment: MTT cytotoxicity, human kidney HEK293T cells; assay type: cell-based
Protocol: (§4) The cytotoxicity of the metabolites to human liver cells and kidney cells was determined using an MTT based-In Vitro Toxicology Assay Kit (Sigma-Aldrich, St. Louis, MO, USA) following the manufacturing instructions. The human kidney HEK293T cells and the human liver HEPGZ cells were used for the evaluation in this study. Both cell samples were maintained and suspended in Dulbecco's Modified Eagle Medium (DMEM with 4.5 g/L glucose, L-glutamine and sodium pyruvate, Corning, Manassas, VA, USA) containing 10% fetal bovine serum (Thermo Scientific) and 1% penicillin/streptomycin at 37° C. under 5% CO2 atmosphere. The cells were plated on a 96-well plate with approximately 5×10^3-1×10^4 cells in each well, and incubated at 37° C. overnight. […] After that, the liquid in each well of the plate was removed carefully and thoroughly, then the cells in the wells were treated with 100 μL of DMSO, and incubated at 37° C. for 15 m. […] Bio Tek Instruments, Inc. Winooski VT). Cells treated with vancomycin, a common option for treating CDI in clinical settings, were also included in the MTT tests as a control. Cell survival and the IC50 were calculated according to the method used in a previous publication: Survival of cells (%)=Drug-treated group OD540/control group OD540×100.

HepG2 = experiment: MTT cytotoxicity, human liver HepG2 cells; assay type: cell-based
Protocol: as §4

[2] = tested on: ESKAPE panel of bacterial pathogens; experiment: ESKAPE panel antibacterial screen; assay type: cell-based
J774.A1 macrophages = experiment: Cytotoxicity screen against Leishmania host cell line; assay type: cell-based; details: toxicity to J774.A1 macrophages
Protocol: as §1

[3] = tested on: liver stage of Plasmodium falciparum; details: previous investigation; cited from earlier work
[4] = tested on: Blood-Stage P. falciparum Strains; experiment: Initial blood-stage screen against several P. falciparum strains; assay type: cell-based, Plasmodium falciparum
Protocol: as §2, §3

[5] = cytotoxicity, murine J774 macrophage cells, read-out: EC50

Row | Compound | IC50 (P. falciparum 3D7; 3D7) | IC50 (P. falciparum Dd2; Dd2) | IC50 (P. falciparum NF54; NF54) | EC50 (μg/mL) [1] | EC50 [1, 5] | other results
1 | 4,12-Bis(acetyl)alcyopterosin O [Compound C8] | – | – | – | – | – | IC50 (Leishmania donovani): 1.2 µM
2 | CCN(CC)CCCC(C)Nc1ccnc2cc(Cl)ccc12 (stereo not shown) [Chloroquine, reference compound] | – | – | – | – | – | IC50 (P. falciparum 3D7; Plasmodium falciparum, 3D7, read-out: IC50 Values against Blood-Stage P. falciparum Strains: 3D7): 0.03 µM; IC50 (P. falciparum Dd2; Plasmodium falciparum, DD2, read-out: IC50 Values against Blood-Stage P. falciparum Strains: Dd2): 1.28 µM; IC50 (P. falciparum NF54; Plasmodium falciparum, NF54, read-out: IC50 Values against Blood-Stage P. falciparum Strains: NF54): 0.03 µM; EC50 ([1]; Mus musculus, J774): 16.3 µg/mL and 51 µM
3 | Cc1cc2c(c3c1[C@@H](CO)OC3=O)CC(C)(C)C2 [Compound C3, alcyopterosin V] | – | – | – | – | – | activity against Clostridium difficile (C. difficile UK6): potent activity; MIC (C. difficile UK6; C. difficile): 8.1 µM (≈ 2 µg/mL); CC50 (HEK293T): 220 µM; CC50 (HepG2): 288 µM; activity against the ESKAPE panel [2]: inactive; IC50 (J774.A1 macrophages): 110 µM
4 | Cc1cc2c(c3c1[C@H](CO[N+](=O)[O-])OC3=O)CC(C)(C)C2 [Compound C4, alcyopterosin E] | – | – | – | – | – | activity against Clostridium difficile (C. difficile UK6): potent activity; CC50 (HEK293T): 570 µM; CC50 (HepG2): 331 µM; activity against the ESKAPE panel [2]: inactive; IC50 (J774.A1 macrophages): 62 µM
5 | CC(=O)O[C@@H]1[C@H](OC(C)=O)[C@H]([C@H](C)CCCC(C)C)[C@@]2(C)C[C@@H](OC(C)=O)[C@H]3[C@@H](C[C@@H](O)[C@H]4CC=CC(=O)[C@]34C)[C@H]12 [Compound C5, alcyosterone] | – | – | – | – | – | activity against the ESKAPE panel [2]: inactive; IC50 (Leishmania donovani; Macrophage): 1.5 µM
6 | Cc1cc2c(c(C)c1CCO[N+](=O)[O-])CC(C)(C)C2=O [Compound C6, alcyopterosin C] | – | – | – | – | – | IC50 (Leishmania donovani): 13 µM
7 | Cc1cc2c(c3c1[C@@H](CCl)OC3=O)CC(C)(C)[C@@H]2O [Compound C9, alcyopterosin L] | – | – | – | – | – | IC50 (Leishmania donovani): 2.4 µM
8 | CC[C@H](C)[C@@H](C(=O)N(C)/C=C\c1c[nH]c2ccccc12)N(C)C(=O)[C@H]([C@@H](C)CC)N(C)C(=O)[C@H](C)N(C)C(=O)[C@H](C(C)C)N(C)C(=O)[C@H](Cc1ccccc1)NC(C)=O [Compound P1, friomaramide A] (Ac-F[NMeV][NMeA][NMeI][NMeI]-X1) | – | – | – | – | – | blocking of liver stage parasite development [3]: comparable to the known drug primaquine
9 | CC[C@H](C)[C@@H](C(=O)N(C)/C=C\c1c[nH]c2ccccc12)N(C)C(=O)[C@H](C(C)C)N(C)C(=O)[C@H](C(C)C)N(C)C(=O)[C@H](CC(C)C)N(C)C(=O)[C@@H]1CCCN1C(=O)[C@H](Cc1ccccc1)NC(=O)[C@H](Cc1ccccc1)NC(C)=O [Compound P2, friomaramide B] (Ac-FFP[NMeL][NMeV][NMeV][NMeI]-X1) | 8.65 µM | 3.3 µM | 3.93 µM | 26.7 µg/mL (≈ 24.6 µM) | – | blood-stage anti-malarial activity [4]: modest activity; EC50 [1]: 24.6 µM
10 | CC[C@H](C)[C@@H](C(N)=O)N(C)C(=O)[C@H](C(C)C)N(C)C(=O)[C@H](CC(C)C)N(C)C(=O)[C@H](Cc1ccccc1)N(C)C(=O)[C@H](Cc1ccccc1)NC=O [Compound P3, shagamide A] | 2.1 µM | 1.72 µM | 2.61 µM | >100 µg/mL | > 100 µM | activity against the 3D7 strain (P. falciparum 3D7; blood stage, strain 3D7): comparable activity
11 | CC[C@H](C)C(C(=O)N(C)[C@H](C(=O)NC)[C@@H](C)CC)N(C)C(=O)[C@H](C(C)C)N(C)C(=O)[C@H](C)N(C)C(=O)[C@H](C(C)C)N(C)C(=O)[C@H](C(C)C)N(C)C(=O)[C@@H](NC=O)C(C)C (stereo partly shown) [Compound P4, shagamide B] (For-V[NMeV][NMeV][NMeA][NMeV][NMeξIle][NMeI]-NHMe) | > 10 µM | 4.37 µM | > 10 µM | >100 µg/mL | > 100 µM | blood-stage anti-malarial activity [4]: did not show significant activity; also recorded: inactive
12 | CNC(=O)[C@H](C(C)C)N(C)C(=O)[C@H](C(C)C)N(C)C(=O)[C@H](C(C)C)N(C)C(=O)[C@H](C)N(C)C(=O)[C@H](C)N(C)C(=O)[C@H](CC(C)C)N(C)C(=O)[C@H](C(C)C)N(C)C(=O)[C@H](Cc1ccccc1)NC=O [Compound P5, shagamide C] (For-F[NMeV][NMeL][NMeA][NMeA][NMeV][NMeV][NMeV]-NHMe) | 2.52 µM | 1.07 µM | 3.73 µM | >100 µg/mL | > 100 µM | inhibition of strain 3D7 (P. falciparum 3D7; blood stage, strain 3D7): 2.52 µg/mL
13 | CNC(=O)[C@H](C(C)C)N(C)C(=O)[C@H](C(C)C)N(C)C(=O)[C@H](C(C)C)N(C)C(=O)[C@H](C)N(C)C(=O)[C@H](C)N(C)C(=O)[C@H](CC(C)C)N(C)C(=O)[C@H](C(C)C)N(C)C(=O)[C@H](Cc1ccccc1)NC(N)=O [Compound P6, shagamide D] ({Phe(Nα-CONH2)}-[NMeV][NMeL][NMeA][NMeA][NMeV][NMeV][NMeV]-NHMe) | > 10 µM | 2.02 µM | 3.05 µM | >100 µg/mL | > 100 µM | activity against the 3D7 strain (P. falciparum 3D7; blood stage, strain 3D7): inactive
14 | CC[C@H](C)[C@@H](C(=O)NC)N(C)C(=O)[C@H](C)N(C)C(=O)[C@H](C(C)C)N(C)C(=O)[C@H](C(C)C)N(C)C(=O)[C@H](C)N(C)C(=O)[C@H](C(C)C)N(C)C(=O)[C@H](C(C)C)N(C)C(=O)[C@H](C)N(C)C(=O)[C@H](C)NC(C)=O [Compound P7, shagamide E] (Ac-A[NMeA][NMeV][NMeV][NMeA][NMeV][NMeV][NMeA][NMeI]-NHMe) | > 10 µM | > 10 µM | > 10 µM | >100 µg/mL | > 100 µM | blood-stage anti-malarial activity [4]: did not show significant activity
15 | CC[C@H](C)[C@@H](C(=O)N(C)[C@@H](C)C(=O)N(C)[C@H](C(N)=O)C(C)C)N(C)C(=O)[C@H]([C@@H](C)CC)N(C)C(=O)[C@H](C)N(C)C(=O)[C@H](C(C)C)N(C)C(=O)[C@H](C)N(C)C(=O)[C@@H](NC(C)=O)C(C)C [Compound P8, shagamide F] (Ac-V[NMeA][NMeV][NMeA][NMeI][NMeI][NMeA][NMeV]-NH2) | > 10 µM | > 10 µM | > 10 µM | >100 µg/mL | > 100 µM | blood-stage anti-malarial activity [4]: did not show significant activity
16 | CN[C@H](CC(C)C)C(=O)N[C@H]1C(=O)N[C@@H](CC(N)=O)C(=O)N[C@H]2C(=O)N[C@H]3C(=O)N[C@H](C(=O)N[C@H](C(=O)O)c4cc(O)cc(O)c4-c4cc3ccc4O)[C@H](O)c3ccc(c(Cl)c3)Oc3cc2cc(c3O[C@@H]2O[C@H](CO)[C@@H](O)[C@H](O)[C@H]2O[C@H]2C[C@](C)(N)[C@H](O)[C@H](C)O2)Oc2ccc(cc2Cl)[C@H]1O [Vancomycin, reference compound] | – | – | – | – | – | MIC (C. difficile UK6; Clostridioides difficile, UK6): 0.34 µM (≈ 0.493 µg/mL); toxicity to host cells (HEK293T; HEK293T, same concentrations alcyopterosins were assayed): non-toxic; toxicity to host cells (HepG2; HepG2, same concentrations alcyopterosins were assayed): non-toxic
17 | CCCCCCCCCCCCCCCCOP(=O)([O-])OCC[N+](C)(C)C [miltefosine, reference compound] | – | – | – | – | – | IC50 (Leishmania donovani; Macrophage): 6.2 µM
